Source: US20020077350A1 (Ashni Naturaceuticals, Inc., priority 2000, published 2002)
Entries after “also recorded” stand apart in the source; their conditions may differ.

Assays:
COX-2 = type: cell-based, human; conditions: Jurkat cells, with and without arachidonic acid or arachidonic acid not specified
Procedure: COX-2 is inducible in the Jurkat cell by PMA.
Cell plating: The Jurkat cells are propagated in suspension according to the instructions of the supplier. For experimentation, cells are seeded from a log-phase culture at a density of 1×10^5 cells per mL in 100 mm plates, 20 mL per plate, 3 plates per treatment. Serum concentration in the test medium is maintained at 0.5%.
Complete transfers are accomplished in 25-30 minutes at 500 mA. Membranes used for blotting are blocked by incubating in TBS (Tris buffered saline, 50 mM tris, 150 mM NaCl, pH 7.5) containing 5% nonfat dry milk for 30 minutes at room temperature. COX-2 protein is visualized by incubation of the blots with the anti-COX-2 antibody in TBST (0.5% Tween 20 in TBS) for two hours and then a second incubation at room temperature with alkaline phosphatase-conjugated secondary antibody diluted 1:1000 in TBST for two hours. The enzymatic reaction is developed for 15 minutes. The molecular weight of COX-2 is estimated by adding a molecular weight standard to reference lanes and staining the membrane filters with amido black 10B.
Blots are translated into TIFF-formatted files with a Microtech 600GS scanner and quantified using Scan Analysis (BIOSOFT, Cambridge UK). Summary scans are then printed and peak heights are measured directly from the figure. One density unit (Du) is defined as one mm of the resulting peak height.
Appropriate controls receive solvent only. […] Twenty-four hours after treatment, the cells are harvested, lysed and western blotting is done for the determination of COX-2 protein expression.

[1] = gastrointestinal disturbance, nausea and vomiting, hypotension, edema; cited from earlier work

SMILES	inhibition of COX-2 enzyme protein expression (COX-2)	patients showing some type of side effects [1]
C=C1CC[C@@H]2[C@](C)(CO)[C@H](O)CC[C@@]2(C)[C@@H]1C/C=C1/C(=O)OC[C@H]1O [Andrographolide]	does not inhibit; also recorded: little effect	
CC1(C)CC[C@]2(C(=O)O)CC[C@]3(C)C(=CC[C@@H]4[C@@]5(C)CC[C@H](O)C(C)(C)[C@@H]5CC[C@]43C)[C@@H]2C1 [Oleanolic acid]	does not inhibit	
CC(C)[C@]12O[C@H]1[C@@H]1O[C@]13[C@]1(O[C@H]1C[C@H]1C4=C(CC[C@@]13C)C(=O)OC4)[C@@H]2O [Triptolide]		Approximately 28%
C[C@H]1[C@H](C)CC[C@]2(C(=O)O)CC[C@]3(C)C(=CC[C@@H]4[C@@]5(C)CC[C@H](O)C(C)(C)[C@@H]5CC[C@]43C)[C@H]12 [Ursolic acid]	does not inhibit	
